Results reported in publication PMC9481570, “A small molecule antagonist of SMN disrupts the interaction between SMN and RNAP II” (Nature Communications, 2022).

How the values were obtained:
[1] = system: UHRF1_TTD aromatic cage residues mutated to alanine; experiment: ITC binding to UHRF1 TTD aromatic cage mutants; conditions: Supplementary Fig. 9e
Description: (§1) The coding DNA fragments of following Tudor domains were cloned into pET28-MHL vector: SMN (aa 82–147), UHRF1 (aa 126–285), SMNDC1 (aa 53–130), TDRD3 (aa 554–611), SND1 (aa 650–910), TDRD2 (aa 327–420), FXR1 (aa 2–132), PHF1 (aa 28–87), SGF29 (aa 115–293), JMJD2A (aa 897–1101), 53BP1 (aa 1483–1606), SETDB1 (aa 190–410), LBR (aa 1–67), ZGPAT (aa 120–271). The coding regions of chromodomain of CBX7 (aa 8–62), PWWP domain of DNMT3A (aa 275–417), WD40 repeats of WDR5 (aa 24–334) and CW domain of ZCWPW2 (aa 21–78) were also subcloned into pET28-MHL vector to generate N-terminally His-tagged fusion protein. The MBT repeats of L3MBTL1 (aa 200–522) and L3MBTL2 (aa 170–625) were subcloned into pET28GST-LIC vector to generate N-terminally GST-His-tagged fusion protein. All the plasmids were generated by ligase independent cloning (Vazyme Biotech, C112 or ABclonal Technology, RK21020). […] The molecular weight of all protein samples was measured by mass spectrometry.
(§2) For the ITC measurement, the concentrated proteins were diluted into 20 mM Tris-HCl, pH 7.5, 150 mM NaCl (ITC buffer); the lyophilized compounds were dissolved in the same buffer, and the pH value was adjusted by adding 2 M NaOH or 2 M HCl. […] Compound concentrations were calculated from the mass and the volume of the solvent. […]

LBR = biological target: T1, LBR (Homo sapiens, UniProt Q14739); experiment: ITC binding to LBR; conditions: Fig. 1c
T1 construct: LBR (aa 1–67); His (N, cleaved yes); made in house; host or cells: E. coli BL21 (DE3) Codon plus RIL
T1 sequence (Q14739 1-67): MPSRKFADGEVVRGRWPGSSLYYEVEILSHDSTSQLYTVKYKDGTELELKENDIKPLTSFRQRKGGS
Description: as §1, §2

SMILES: Cn1c2c(c(=N)c3c1CCC3)CCC2 [Compound 1, 4-methyl-2,3,4,5,6,7-hexahydrodicyclopenta[b,e]pyridin-8(1H)-imine]
- binding affinity to UHRF1_TTD aromatic cage alanine mutants [1]: not affected significantly
- Kd (LBR): > 244 µM
